The test system of assay [1] is Mycobacterium tuberculosis. As to the kind of experiment: Antitubercular activity against Mycobacterium tuberculosis H37Rv by microdilution resazurin assay. The format is functional. (Broth dilution looks for growth in wells or tubes with falling amounts of substance.)
In assay [2] the test system is Mycobacterium tuberculosis. Briefly: Antitubercular activity against Mycobacterium tuberculosis H37Rv at 5 ug/disk by microdilution resazurin assay. The class given is functional, organism-based.
Assay [3] concerns Mycobacterium tuberculosis. As to the kind of experiment: Antitubercular activity against Mycobacterium tuberculosis H37Rv at 30 ug/disk by microdilution resazurin assay. The format is functional, organism-based.

The structures appear in SMILES notation. Converted amounts (≈) assume the structure as drawn. The source made the active and inactive calls. No cut-off for these calls is given here.

By MIC is commonly meant the lowest concentration that inhibits growth of the organism. `O=c1oc(-c2ccccc2)nn1CN1CCCCC1` had an MIC in assay [1] of 32 µg/mL (≈ 123 µM).
Same read-out and setting: then `CC1CCN(Cn2nc(-c3cccnc3)oc2=O)CC1`, with greater than 64 µg/mL; and `CN(Cc1cccc(Br)c1)Cn1nc(-c2ccncc2)oc1=O`, with 4 µg/mL (≈ 10.7 µM).
On the same count and under the same terms, then `O=c1oc(-c2ccccn2)nn1CN1CCCCC1`, with 4 µg/mL (≈ 15.4 µM).
On the same count and under the same terms, next, `CN(Cc1ccccc1F)Cn1nc(-c2ccncc2)oc1=O`: 4 µg/mL (≈ 12.7 µM); `CC1CCCCN1Cn1nc(-c2ccccc2)oc1=O` (configuration not stated): 32 µg/mL (≈ 117 µM).
As for `CC1CCCN(Cn2nc(-c3cccnc3)oc2=O)C1` (configuration not stated), the MIC in assay [1] worked out at 32 µg/mL (≈ 117 µM).
On the same count and under the same terms, then `CN(Cc1ccc(F)cc1)Cn1nc(-c2ccncc2)oc1=O`, with 4 µg/mL (≈ 12.7 µM).
On the same count and under the same terms, next, `O=c1oc(-c2cccnc2)nn1CN1CCCCC1`: 32 µg/mL (≈ 123 µM).
`NNC(=O)c1ccncc1` [ISONIAZID]: the result in assay [2] was Active. In assay [1], this compound gave an MIC of 0.5 µg/mL (≈ 3.65 µM).
In assay [1], `CC1CCCCN1Cn1nc(-c2cccnc2)oc1=O` (configuration not stated) came in with an MIC of 32 µg/mL (≈ 117 µM).
The same measure, in the same setting: next, `CN(Cc1cccc(F)c1)Cn1nc(-c2ccncc2)oc1=O`: 8 µg/mL (≈ 25.5 µM); `CC1CCN(Cn2nc(-c3cnccn3)oc2=O)CC1`: greater than 64 µg/mL.
For `Cc1ccc(CN(C)Cn2nc(-c3ccncc3)oc2=O)cc1`, the MIC in assay [1] was 4 µg/mL (≈ 12.9 µM).
On the same count and under the same terms, then `CN(Cc1ccc(Cl)cc1Cl)Cn1nc(-c2ccncc2)oc1=O`, with 8 µg/mL (≈ 21.9 µM); and `CN(Cc1cccc(Cl)c1)Cn1nc(-c2ccncc2)oc1=O`, with 8 µg/mL (≈ 24.2 µM).
Consider `CC1CCCN(Cn2nc(-c3ccccc3)oc2=O)C1` (configuration not stated), for which the minimal inhibitory concentration (MIC) in assay [1] was found to be 32 µg/mL (≈ 117 µM).
On the same count and under the same terms, next, `CC1CCCN(Cn2nc(-c3ccccn3)oc2=O)C1` (configuration not stated): 4 µg/mL (≈ 14.6 µM); `CN(Cc1ccc(Br)cc1)Cn1nc(-c2ccncc2)oc1=O`: 4 µg/mL (≈ 10.7 µM); `CN(Cc1cccc2ccccc12)Cn1nc(-c2ccncc2)oc1=O`: 8 µg/mL (≈ 23.1 µM).
On to `O=c1oc(-c2cnccn2)nn1CN1CCCCC1`, for which the MIC in assay [1] is greater than 64 µg/mL.
Same read-out and setting: next, `CN(Cc1ccc(Cl)cc1)Cn1nc(-c2ccncc2)oc1=O`: 8 µg/mL (≈ 24.2 µM).
On the same count and under the same terms, next, `O=c1[nH]nc(-c2ccccc2)o1`: 32 µg/mL (≈ 197 µM).
Turning to `CO[C@H]1/C=C/O[C@@]2(C)Oc3c(C)c(O)c4c(O)c(c(/C=N/N5CCN(C)CC5)c(O)c4c3C2=O)NC(=O)/C(C)=C\C=C\[C@H](C)[C@H](O)[C@@H](C)[C@@H](O)[C@@H](C)[C@H](OC(C)=O)[C@@H]1C` [RIFAMPIN], the outcome in assay [3] was Active. Also, the MIC in assay [1] was found to be 1 µg/mL (≈ 1.22 µM).
Consider `CC1CCCN(Cn2nc(-c3cnccn3)oc2=O)C1` (configuration not stated), for which the MIC in assay [1] was greater than 64 µg/mL.
In assay [1], `O=c1[nH]nc(-c2ccccn2)o1` displayed a minimum inhibitory concentration (MIC) of 4 µg/mL (≈ 24.5 µM).
In assay [1], `CC1CCCCN1Cn1nc(-c2ccccn2)oc1=O` (configuration not stated) showed an MIC of 4 µg/mL (≈ 14.6 µM).
In assay [1], `O=c1[nH]nc(-c2ccncc2)o1` [NEOVADRINE] displayed an MIC of 4 µg/mL (≈ 24.5 µM).
As for `O=c1[nH]nc(-c2cccnc2)o1`, the MIC in assay [1] amounted to 32 µg/mL (≈ 196 µM).
On to `CC1CCN(Cn2nc(-c3ccccc3)oc2=O)CC1`, for which the MIC in assay [1] stood at 32 µg/mL (≈ 117 µM).
On to `CN(Cc1ccccc1)Cn1nc(-c2ccncc2)oc1=O`, for which the MIC in assay [1] amounted to 8 µg/mL (≈ 27 µM).
On the same count and under the same terms, next, `CN(Cc1ccccc1Cl)Cn1nc(-c2ccncc2)oc1=O`: 8 µg/mL (≈ 24.2 µM); `CC1CCN(Cn2nc(-c3ccccn3)oc2=O)CC1`: 4 µg/mL (≈ 14.6 µM); `O=c1[nH]nc(-c2cnccn2)o1`: greater than 64 µg/mL.
Still for that read-out and setting: then `CN(Cc1ccccc1Br)Cn1nc(-c2ccncc2)oc1=O`, with 8 µg/mL (≈ 21.3 µM).
